According to patent US20240344095A1, “PROCESS FOR THE PRODUCTION OF MICROBIAL CELLULOSE USING WASTE TEXTILES” (Sanko Tekstil Isletmeleri San. Ve Tic. A.S., priority 2023, published 2024):

Tested on: Gluconacetobacter hansenii ATCC 53582
Experiment: Effect of additives in waste textile glucose medium on bacterial cellulose production
Assay type: cell-based
Details: 14 days
Experimental: The bacterial strain Gluconacetobacter hansenii ATCC 53582 was grown in 500 mL of waste textile glucose medium at an incubation temperature of 28° C.-30° C., for 14 days, in a close-lid plastic box. Different experiments were carried out to test the effect of the addition of different additives (TiBALDH, Glycerol, Ascorbic Acid) in different concentration on the production of bacterial cellulose. At the end of the incubation, the amount of the wet bacterial cellulose obtained was determined. Comparisons of wet bacterial amount change (%) in Table 2, 3, 4, and 5 are based on data in Table 1.

[1] = additives marked + at 0.5% Vitamin C, 1% Glycerol, 0.25% TiBALDH in WTG medium

Row | Compound | Wet BC amount change (Vitamin C Concentration 0.25 % in WTG medium, compared with Table 1) | Wet BC amount change (Vitamin C Concentration 0.50 % in WTG medium, compared with Table 1) | Wet BC amount change (Vitamin C Concentration 1.00 % in WTG medium, compared with Table 1) | Wet BC amount change (Vitamin C Concentration 2.00 % in WTG medium, compared with Table 1) | Wet BC amount change (Vitamin C Concentration 3.00 % in WTG medium, compared with Table 1) | Wet BC amount change (Vitamin C Concentration 4.00 % in WTG medium, compared with Table 1) | Wet BC amount change [1] | Wet BC amount change (TiBALDH Concentration 0.0050 % in WTG medium, compared with Table 1) | Wet BC amount change (TiBALDH Concentration 0.0250 % in WTG medium, compared with Table 1) | Wet BC amount change (TiBALDH Concentration 0.0500 % in WTG medium, compared with Table 1) | Wet BC amount change (TiBALDH Concentration 0.2500 % in WTG medium, compared with Table 1) | Wet BC amount change (TiBALDH Concentration 0.5000 % in WTG medium, compared with Table 1) | Wet BC amount change (TiBALDH Concentration 1.0000 % in WTG medium, compared with Table 1) | Wet BC amount change (Glycerol Concentration 0.5 % in WTG medium, compared with Table 1) | Wet BC amount change (Glycerol Concentration 1.0 % in WTG medium, compared with Table 1) | Wet BC amount change (Glycerol Concentration 2.0 % in WTG medium, compared with Table 1)
1 | O=C1O[C@H]([C@@H](O)CO)C(O)=C1O [Vitamin C, ascorbic acid] | 6.75% | 9.25% | 8.13% | 6.95% | 5.57% | 2.96% | 9.25% | – | – | – | – | – | – | – | – | –
2 | Titanium (IV) bis-(ammonium lactato) dihydroxide [TiBALDH] | – | – | – | – | – | – | 55.30% | 7.04% | 18.10% | 24.13% | 55.30% | 17.10% | −26.79% | – | – | –
3 | OCC(O)CO [Glycerol, glycerol] | – | – | – | – | – | – | 19.74% | – | – | – | – | – | – | 10.93% | 19.74% | 10.15%
